From patent publication US11304927B2, “Bioactive extract, fraction of Cassia occidentalis and formulation thereof for bone regeneration” (COUNCIL OF SCIENTIFIC AND INDUSTRIAL RESEARCH, priority 2018, dated 2022)

How the values were obtained:
[1] = rat, in vivo, 250 mg/kg
Procedure: LC-MS/MS-API 4000 (Q-TRAP) triple quadrupole (AB-SCIEX, Toronto, Canada). The mass spectrometer was operated using an electrospray atmospheric pressure ionization source in positive ion mode.
a) Fingerprinting of 219/C002 Extract
Primary stock: 1 mg/mL in DMSO
Secondary stock: 50 ng/mL in Methanol
Continuous injection at 10 μL/min from secondary stock.
b) Fingerprinting of Blank Rat Plasma:
Blood was collected from overnight fasted rats and plasma was seperated. Plasma was precipitated with methanol (1:5 v/v), vortexed and centrifuged. The supernatant was collected and diluted with methanol (1:10 v/v). Continuous injection at 10 μL/min
c) Fingerprinting of 250 mg/kg (Oral) 219/C002 Treated Rat Plasma
Overnight fasted rats were administered 250 mg/kg 219/C002 extract suspension orally. Blood was collected after 45 min and plasma was separated. Plasma was precipitated with methanol (1:5 v/v), vortexed and centrifuged. The supernatant was collected and diluted with methanol (1:10 v/v). Continuous injection into the column at 10 μL/min.
The mass spectrometer [LC-MS/MS-API 4000 (Q-TRAP) triple quadrupole (AB-SCIEX, Toronto, Canada)] was used for the assay. Overnight fasted rats were administered 250 mg/kg extract suspension orally. Blood was collected after 45 min and plasma was separated. Plasma was precipitated with methanol, vortexed and centrifuged. The supernatant was collected and diluted with methanol. Continuous injection at 10 μL/min was done for extract, blank plasma and extract treated plasma.

Runx2 mRNA = assay: qPCR osteogenic gene expression in rat calvarial osteoblast; format: cell-based; settings: mRNA by qPCR, 48 h, active concentration of the compounds
osteopenic mice = assay: Osteopenic (OVX) mice model; format: in vivo, balb/c mice
Procedure: 50 adult female balb/c mice (20±3 g, 10-12 months) underwent either sham surgery or ovariectomy (OVX). 6 weeks post-surgery, mice were scanned using μCT to ensure development of osteopenia. Treatments of 219/[…] (5 mg/kg), 219/[…] (1 mg/kg and 5 mg/kg), PTH (40 μg/kg) and vehicle (water) were given to OVX mice with osteopenia for another 6 weeks, and vehicle treatment was given to sham operated mice for the same duration (n=10/group). After 6 weeks all mice were sacrificed and bones were collected for further experiment. A high-resolution X-ray micro-computed tomographic (μCT) for two-dimensional (2D) and three-dimensional (3D) assessment of bones (excised bones) were carried out using a Sky Scan 1076 μCT scanner (SkyScan, Ltd, Kartuizersweg, Kontich, Belgium). Briefly, after scanning bone samples at a nominal resolution (pixels) of 9 μm, cross-sectional reconstruction was made using SkyScanNrecon software based on a modified Feldkamp algorithm. To analyze trabecular bone, region of interest was drawn on a total of 100 slices in the region of secondary spongiosa situated 1.5 mm away from the distal border of growth plate (GP) excluding primary spongiosa and cortical bone. Quantification was done by employing Batman software encumbered with trabecular (3D) and cortical (2D) bone programs. Using μCT scans, trabecular bone mineral density (BMD) of femurs was determined from the volume of interest made for cortical and trabecular region, respectively. […] Bone mechanical strength was examined by three-point bending of femur diaphysis with bone strength tester TK […] (Muromachi Kikai Co. Ltd, Tokyo, Japan).

[2] = tested on: type 1 collagen (col1) mRNA; assay: qPCR osteogenic gene expression in rat calvarial osteoblast; format: cell-based; settings: mRNA by qPCR, 48 h, active concentration of the compounds
[3] = tested on: Rat calvarial osteoblasts (RCO); assay: Alkaline phosphatase (ALP) assay, osteoblast differentiation; format: cell-based; settings: 48 h, ALP activity
Procedure: Calvaria from ten to twelve 1-2 day old rat pups were harvested, cleaned, and subjected to five sequential enzymatic digestions (0.1% diaspase and 0.1% collagenase I) of 10-15 min each. Cells from second to fifth digestion were collected, centrifuged, re-suspended and cultured in α-MEM containing 10% fetal bovine serum (FBS) and 1% penicillin/streptomycin (complete growth medium).
For ALP assay, RCO were trypsinized at 80% confluence and 2×10^3 cells/well were seeded onto 24-well plates. Cells were treated with different compounds isolated from extract & vehicle for 48 h in α-MEM supplemented with 10 mM β-glycerophosphate, […] and 1% penicillin/streptomycin (osteoblast differentiation medium).
At the end of the experiment, cells were washed with PBS, freeze fractured by placing the plates at −70° C. for 15 minutes followed by bringing to room temperature. ALP activity was measured by adding 100 µl p-nitrophenylphosphate buffer (2 mg/ml pNPP and 0.25 mM MgCl2 in 1 M diethanolamine). The absorption was measured at 405 nm with a microplate reader.

BMP2 mRNA = assay: qPCR osteogenic gene expression in rat calvarial osteoblast; format: cell-based; settings: mRNA by qPCR, 48 h, active concentration of the compounds
[4] = tested on: MP treated animals (adult male SD rats); assay: MP induced secondary osteoporosis model; format: in vivo, rat; settings: MP 5 mg/Kg s.c. 1 month, MP alone or MP+219/C002 250 mg/kg, 219/F005 100 mg/kg, 219/F005-F 50 mg/kg
Procedure: 50 adult male SD rats (260±20 g, 8-10 months) were divided into 5 groups. 5 mg/Kg methylprednisolone was administered subcutaneously for 1 month to induce osteoporosis. 219/C002 (250 mg/kg), 219/F005 (100 mg/Kg), 219/F005-F (50 mg/kg) treatment were given to check the efficacy of the extract and its different fraction along with methylprednisolone (n=10/group). After 1 month all rats were sacrificed and bones were collected for further experiment.
A high-resolution X-ray micro-computed tomographic (μCT) for two-dimensional (2D) and three-dimensional (3D) assessment of bones (excised bones) were carried out using a Sky Scan 1076 μCT scanner (SkyScan, Ltd, Kartuizersweg, Kontich, Belgium). Briefly, after scanning bone samples at a nominal resolution (pixels) of 9 μm, cross-sectional reconstruction was made using SkyScanNrecon software based on a modified Feldkamp algorithm. To analyze trabecular bone, region of interest was drawn on a total of 100 slices in the region of secondary spongiosa situated 1.5 mm away from the distal border of growth plate (GP) excluding primary spongiosa and cortical bone. Quantification was done by employing Batman software encumbered with trabecular (3D) and cortical (2D) bone programs. Using μCT scans, trabecular bone mineral density (BMD) of femurs was determined from the volume of interest made for cortical and trabecular region, respectively. For calibration, hydroxyl apatite phantom rods of 4 mm of diameter with known BMD (0.25 g/cm^3 and 0.75 g/cm^3) were employed.
Animals were kept in metabolic cages without food but with respective treatment and ad libitum water. Fasting serum samples were collected after 24 h. Serumprocollagen type I N-terminal propeptide (PINP) levels were determined by ELISA (MyBioSource, USA.), following the manufacturer's protocols.
Bone mechanical strength was examined by three-point bending of femur diaphysis with bone strength tester TK 252C (Muromachi Kikai Co. Ltd, Tokyo, Japan).

| SMILES | oral absorption: detection in plasma [1] | RunX2 expression (Runx2 mRNA) | Col1 expression [2] | osteogenic concentration [3] | also measured |
| --- | --- | --- | --- | --- | --- |
| O=c1cc(-c2ccc(O)cc2)oc2cc(O)cc(O)c12 [219/K007, Apigenin] | detected in extract and in extract-treated rat plasma but not in blank rat plasma | promoted | promoted | (1 μM) | femur cortical strength (three-point bending) (osteopenic mice; 6 weeks treatment): partially improve cortical strength |
| O=c1cc(-c2ccc(O)cc2)oc2cc(O)ccc12 [219/K009, 7,4′-dihydroxy flavone] | detected in extract and in extract-treated rat plasma but not in blank rat plasma | promoted | promoted | (10 nM) | – |
| O=c1cc(-c2ccc(O)c(O)c2)oc2cc(O)cc(O)c12 [219/K010, Luteolin] | – | – | – | (1 nM) | – |
| O=c1cc(-c2ccc(O)c(O)c2)oc2cc(O)ccc12 [219/K011, 7,3′,4′-trihydroxy-flavone] | – | promoted | promoted | (10 nM) | BMP2 expression (BMP2 mRNA): promoted BMP2 expression |
| Cc1cc(O)c2c(c1)C(=O)c1cc(O)cc(O)c1C2=O [219/K012, Emodin] | – | – | – | (10 nM) | – |
| O=c1cc(-c2ccc(O)cc2)oc2cc(O)c([C@@H]3O[C@H](CO)[C@@H](O)[C@H](O)[C@H]3O)c(O)c12 [219/K017, Isovitexin] | detected in extract and in extract-treated rat plasma but not in blank rat plasma | promoted | promoted | (1 μM) | femur trabecular microarchitecture (BMD, BV/TV) (osteopenic mice; 5 mg/Kg, 6 weeks): completely restored femur trabecular microarchitecture; bone strength of femur, higher than with 219/K007 (apigenin) treatment (osteopenic mice; 6 weeks treatment): 80%; femur cortical strength (three-point bending) (osteopenic mice; 6 weeks treatment): restored femur cortical strength; total bone volume of femur, higher than with 219/K007 (apigenin) treatment (osteopenic mice; 6 weeks treatment): 72%; BMP2 expression (BMP2 mRNA): promoted BMP2 expression |
| C[C@H]1C[C@@H]2[C@H]([C@@H](O)C[C@@]3(C)[C@H]2CC[C@]3(O)C(=O)CO)[C@@]2(C)C=CC(=O)C=C12 [MP, Methylprednisolone] | – | – | – | – | BMD ([4]; mean, n=10): 0.281 gm-HA/cm^3; BV/TV ([4]; mean, n=10): 18.33%; Serum PINP ([4]; mean, n=10): 50.17 ng/mL; Energy ([4]; femur three-point bending): 75.67 mJ; Max power ([4]; femur three-point bending): 82.17 N; Stiffness ([4]; femur three-point bending): 108.17 N/mm |
| O=C(O)c1ccccn1 [Picolonic acid] | detected in extract and in extract-treated rat plasma but not in blank rat plasma | – | – | – | – |
